From PubChem BioAssay (NCI)
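48-hour exposure; five concentrations; linearly interpolated endpoints. GI50 marks 50% less growth. Definition used: TGI = concentration required for complete inhibition of growth.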

Assays:
Assay in all cases: NCI anticancer screen, dose series, 48 h
SK-MEL-2 melanoma = system: SK-MEL-2 melanoma
LOX IMVI melanoma = system: LOX IMVI melanoma
HOP-62 NSCLC = system: HOP-62 NSCLC
SF-295 CNS = system: SF-295 CNS
MCF7 breast = system: MCF7 breast
K-562 leukemia = system: K-562 leukemia
OVCAR-4 ovarian = system: OVCAR-4 ovarian
MDA-N = system: MDA-N
PC-3 prostate = system: PC-3 prostate
T-47D breast = system: T-47D breast
SF-539 CNS = system: SF-539 CNS
SF-268 CNS = system: SF-268 CNS
DMS 114 small cell lung = system: DMS 114 small cell lung
HL-60(TB) leukemia = system: HL-60(TB) leukemia
RXF-631 renal = system: RXF-631 renal
DLD-1 colon = system: DLD-1 colon

SMILES	TGI (SK-MEL-2 melanoma)	TGI (LOX IMVI melanoma)	TGI (HOP-62 NSCLC)	TGI (SF-295 CNS)	TGI (MCF7 breast)	TGI (K-562 leukemia)	TGI (OVCAR-4 ovarian)	TGI (MDA-N)	TGI (PC-3 prostate)	TGI (T-47D breast)	TGI (SF-539 CNS)	TGI (SF-268 CNS)	TGI (DMS 114 small cell lung)	TGI (HL-60(TB) leukemia)	TGI (RXF-631 renal)	TGI (DLD-1 colon)	GI50 (HL-60(TB) leukemia)	GI50 (MCF7 breast)	GI50 (PC-3 prostate)	GI50 (T-47D breast)
CC(=O)O[C@@H]1CN(S(=O)(=O)c2ccc(C)cc2)C[C@@H]1C1CCCCC1	32.2 µM	64 µM	66.7 µM	> 100 µM	42.1 µM	> 100 µM	> 100 µM	54.7 µM	46.4 µM	> 100 µM	0.609 µM	52.5 µM	–	–	–	–	–	–	–	–
CC1CC(c2ccc([N+](=O)[O-])cc2)=Nc2ccccc2S1=O (configuration not stated)	> 100 µM	25.6 µM	75 µM	55.2 µM	–	75 µM	62.3 µM	–	–	–	45 µM	44.1 µM	33.2 µM	50.5 µM	52.6 µM	33.6 µM	–	–	–	–
CC(CNc1nc(Nc2ccc(Cl)c(Cl)c2)nc(C(Cl)(Cl)Cl)n1)N(C)C (configuration not stated)	–	–	–	–	3.16 µM	–	–	–	3.84 µM	4.44 µM	–	–	–	3.54 µM	–	–	1.69 µM	1.7 µM	1.76 µM	1.91 µM
